Results as given in patent US4570006A, “Amidine compound, process for producing same and anti-complement agent comprising same” (Torii & Co. Ltd., priority 1981, dated 1986).

What was measured:
Thrombin = Thrombin (Homo sapiens, UniProt P00734); assay: biochemical; conditions: TAME hydrolysis; read-out: ID50, thrombin
Kallikrein = assay: Anti-kallikrein activity (inhibition of TAME hydrolysis); type: biochemical; conditions: read-out: ID50, kallikrein
Method: (§1) The anti-trypsin, anti-plasmin, anti-kallikrein and anti-thrombin activities were determined according to the method of Muramatsu et al. [M. Muramatsu, T. Onishi, S. Makino, Y. Hayashi and S. Fujii, J. of Biochem., 58, 214 (1965)]. The data summarized in Table 1 are expressed in terms of molar concentration (ID50) of the test compound which inhibits 50% of the activity of each enzyme to hydrolyze TAME (tosylarginine methyl ester). The compound No. corresponds to the compound number shown in Examples.

Trypsin = target: T1, Trypsin (Bos taurus, UniProt P00760); assay: Anti-trypsin activity (inhibition of TAME hydrolysis); type: biochemical; conditions: read-out: ID50, trypsin
T1 sequence (P00760 24-246): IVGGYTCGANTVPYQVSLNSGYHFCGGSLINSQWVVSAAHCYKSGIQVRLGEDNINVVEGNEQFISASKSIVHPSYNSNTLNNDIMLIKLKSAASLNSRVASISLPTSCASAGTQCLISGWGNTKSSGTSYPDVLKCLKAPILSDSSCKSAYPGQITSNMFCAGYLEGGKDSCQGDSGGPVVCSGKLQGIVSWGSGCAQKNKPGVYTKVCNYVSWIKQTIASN
Method: as §1

complement = assay: Inhibition of complement mediated hemolysis; type: cell-based
Method: The complement mediated hemolysis is widely used as a means to determine the titration of complement. The principle of this method is based on the fact that hemolysis if caused by the activation of complement, when the latter is added to a complex (immune complex) of erythrocytes and the antibody thereof. The degree of hemolysis varies in proportion to the amount of complement added. Therefore, when a known amount of complement admixed with a Cl esterase inhibitor is used, the hemolysis must be suppressed in proportion to the inhibitory activity.
The anti-Cl esterase (Clr, Cls) activity was determined according to the method of Okamura et al. [K. Okamura, M. Muramatsu and B. Fujii, Biochem. Biophys. […] The figures in Table 2 have the following meanings: […]

Cls = target: T2, Cls (Homo sapiens, UniProt P09871); assay: Anti-Cl esterase activity, Cls (ATEE hydrolysis); type: biochemical; conditions: hydrolysis of ATEE; read-out: Anti-Cl activity, Cls (50% inhibition)
T2 sequence (P09871 438-688 limits assumed): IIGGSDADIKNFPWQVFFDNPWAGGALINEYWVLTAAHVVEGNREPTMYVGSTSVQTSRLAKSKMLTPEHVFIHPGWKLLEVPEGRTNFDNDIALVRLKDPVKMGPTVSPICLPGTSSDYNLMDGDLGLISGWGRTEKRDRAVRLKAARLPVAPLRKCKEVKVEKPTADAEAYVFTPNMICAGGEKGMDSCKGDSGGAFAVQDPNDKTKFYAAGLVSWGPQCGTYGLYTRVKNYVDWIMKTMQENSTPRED
T2 sequence (P09871 16-437 limits assumed): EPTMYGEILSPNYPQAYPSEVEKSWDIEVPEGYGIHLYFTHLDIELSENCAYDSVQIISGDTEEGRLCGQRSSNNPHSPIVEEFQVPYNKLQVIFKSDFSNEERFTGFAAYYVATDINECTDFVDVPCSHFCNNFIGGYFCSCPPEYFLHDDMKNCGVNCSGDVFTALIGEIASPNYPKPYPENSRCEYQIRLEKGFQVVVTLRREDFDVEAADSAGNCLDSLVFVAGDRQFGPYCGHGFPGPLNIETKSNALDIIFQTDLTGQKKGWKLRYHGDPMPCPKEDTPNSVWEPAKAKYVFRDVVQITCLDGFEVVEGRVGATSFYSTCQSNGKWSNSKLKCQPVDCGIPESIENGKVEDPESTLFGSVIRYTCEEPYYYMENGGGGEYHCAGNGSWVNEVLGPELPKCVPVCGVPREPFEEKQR
Method: The anti-Cl esterase (Clr, Cls) activity was determined according to the method of Okamura et al. [K. Okamura, M. Muramatsu and B. Fujii, Biochem. Biophys. […] The figures in Table 2 have the following meanings:
Cls: Molar concentration of the test compound which inhibits 50% of the ability of Cls to hydrolyse ATEE (acetyltyrosin ethyl ester).

Plasmin = Plasmin (Homo sapiens, UniProt P00747); assay: Anti-plasmin activity (inhibition of TAME hydrolysis); type: biochemical; conditions: read-out: ID50, plasmin
Method: as §1

Clr = target: T3, Clr (Homo sapiens, UniProt P00736); assay: Anti-Cl esterase activity, Clr (AAME hydrolysis); type: biochemical; conditions: hydrolysis of AAME; read-out: Anti-Cl activity, Clr (ID50)
T3 sequence (P00736 464-705 limits assumed): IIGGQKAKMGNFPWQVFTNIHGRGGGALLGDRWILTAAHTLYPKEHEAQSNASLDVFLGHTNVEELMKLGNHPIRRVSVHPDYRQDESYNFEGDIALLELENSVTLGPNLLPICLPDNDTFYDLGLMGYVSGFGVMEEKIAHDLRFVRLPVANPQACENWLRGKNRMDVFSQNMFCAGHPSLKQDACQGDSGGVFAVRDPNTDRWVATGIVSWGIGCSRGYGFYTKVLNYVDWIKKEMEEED
T3 sequence (P00736 18-463 limits assumed): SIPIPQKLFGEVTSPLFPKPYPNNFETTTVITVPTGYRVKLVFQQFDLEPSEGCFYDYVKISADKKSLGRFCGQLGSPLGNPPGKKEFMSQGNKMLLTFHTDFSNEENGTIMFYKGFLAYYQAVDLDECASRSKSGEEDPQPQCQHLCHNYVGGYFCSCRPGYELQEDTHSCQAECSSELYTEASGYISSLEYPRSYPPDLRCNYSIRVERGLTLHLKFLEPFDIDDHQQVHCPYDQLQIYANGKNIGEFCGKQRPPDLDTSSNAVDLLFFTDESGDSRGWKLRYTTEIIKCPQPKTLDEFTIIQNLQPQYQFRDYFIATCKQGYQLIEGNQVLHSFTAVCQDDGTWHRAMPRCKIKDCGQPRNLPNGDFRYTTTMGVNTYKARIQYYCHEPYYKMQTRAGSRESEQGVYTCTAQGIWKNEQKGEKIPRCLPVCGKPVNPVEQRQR
Method: The anti-Cl esterase ([…]) activity was determined according to the method of Okamura et al. [K. Okamura, M. Muramatsu and B. Fujii, Biochem. Biophys.

Sequence of Plasmin (P00747 581-810 limits assumed, species assumed): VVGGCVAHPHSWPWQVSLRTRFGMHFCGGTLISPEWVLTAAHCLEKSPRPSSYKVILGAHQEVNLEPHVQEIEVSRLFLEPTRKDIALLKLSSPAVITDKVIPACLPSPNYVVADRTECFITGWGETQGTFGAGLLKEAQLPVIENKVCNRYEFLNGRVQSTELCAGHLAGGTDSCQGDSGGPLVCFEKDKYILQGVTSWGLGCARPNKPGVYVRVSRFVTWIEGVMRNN
Sequence of Plasmin (P00747 97-580 limits assumed, species assumed): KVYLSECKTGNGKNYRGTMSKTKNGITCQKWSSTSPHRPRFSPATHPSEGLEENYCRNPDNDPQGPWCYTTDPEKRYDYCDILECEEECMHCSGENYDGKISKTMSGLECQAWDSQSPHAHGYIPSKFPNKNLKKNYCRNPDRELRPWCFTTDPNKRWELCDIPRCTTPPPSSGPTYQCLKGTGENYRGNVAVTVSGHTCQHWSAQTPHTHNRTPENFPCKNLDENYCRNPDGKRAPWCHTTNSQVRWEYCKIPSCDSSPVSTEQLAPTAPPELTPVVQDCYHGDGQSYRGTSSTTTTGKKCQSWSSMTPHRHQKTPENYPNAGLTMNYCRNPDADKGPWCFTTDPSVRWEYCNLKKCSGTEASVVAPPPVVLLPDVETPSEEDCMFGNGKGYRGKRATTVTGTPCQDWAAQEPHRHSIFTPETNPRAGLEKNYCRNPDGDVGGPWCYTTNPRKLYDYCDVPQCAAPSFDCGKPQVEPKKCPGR

| SMILES | IC50 (Thrombin) | IC50 (Kallikrein) | IC50 (Trypsin) | IC50 (Cls) | IC50 (Plasmin) | IC50 (Clr) | Inhibition of complement mediated hemolysis (%) (complement; compound at 1 × 10^-4) | Inhibition of complement mediated hemolysis (%) (complement; compound at 1 × 10^-5) | Inhibition of complement mediated hemolysis (%) (complement; compound at 1 × 10^-6) | Inhibition of complement mediated hemolysis (%) (complement; compound at 1 × 10^-7) |
| --- | --- | --- | --- | --- | --- | --- | --- | --- | --- | --- |
| CC=CC=CC(=O)Oc1ccc(C(=N)N)cc1C(=O)OC [Compound 5] | 2 µM | 1 µM | 0.7 µM | 0.9 µM | 0.3 µM | 5 µM | 100% | 97.0% | 47.2% | 3.0% |
| CC=CC=CC(=O)Oc1ccc(C(=N)N)cc1C(=O)c1ccccc1 [Compound 6] | 0.08 µM | 0.3 µM | 0.2 µM | 0.3 µM | 0.4 µM | 1 µM | 100% | 97.7% | 52.9% | 5.0% |
| N=C(N)c1ccc(OC(=O)CCN)c(C(=O)c2ccccc2)c1 [Compound 11, 4-amidino-2-benzoylphenyl 3-aminopropionate] | > 10 µM | > 10 µM | > 10 µM |  | > 10 µM | > 10 µM | 17.4% | 2.5% | 2.5% | 3.5% |
| N=C(N)c1ccc(OC(=O)CCCCCNC(=O)OCc2ccccc2)c(C(=O)c2ccccc2)c1 [Compound 12, 4-amidino-2-benzoylphenyl 6-benzyloxycarbonylaminocaproate] | 4 µM | > 10 µM | 6 µM | 5 µM | > 10 µM | > 10 µM | 91.3% | 57.8% | 15.0% | 3.8% |
| N=C(N)c1ccc(OC(=O)CCCCCN)c(C(=O)c2ccccc2)c1 [Compound 13, 4-amidino-2-benzoylphenyl 6-aminocaproate] | > 10 µM | > 10 µM | > 10 µM | > 10 µM | > 10 µM | > 10 µM | 15.9% | 9.8% | 0% | 0% |
| COc1cc(C(=N)N)ccc1OC(=O)CCCCCNC(=N)N [Compound 14, 4-amidino-2-methoxyphenyl 6-guanidinocaproate] | 10 µM | 10 µM | 10 µM | > 10 µM | 10 µM | > 10 µM | 63.6% | 16.2% | 7.0% | 0% |
| CSc1ccc(C(=O)Oc2ccc(C(=N)N)cc2C(=O)c2ccccc2)cc1 [Compound 49] | < 0.01 µM | 0.4 µM | 0.03 µM |  | 0.2 µM | 1 µM | 83.8% | 94.6% | 97.5% | 75.1% |

Continued, in another order:

| IC50 (Thrombin) | IC50 (Kallikrein) | IC50 (Trypsin) | IC50 (Cls) | IC50 (Plasmin) | IC50 (Clr) | SMILES | Inhibition of complement mediated hemolysis (%) (complement; compound at 1 × 10^-4) | Inhibition of complement mediated hemolysis (%) (complement; compound at 1 × 10^-5) | Inhibition of complement mediated hemolysis (%) (complement; compound at 1 × 10^-6) | Inhibition of complement mediated hemolysis (%) (complement; compound at 1 × 10^-7) |
| --- | --- | --- | --- | --- | --- | --- | --- | --- | --- | --- |
| 2 µM | > 10 µM | > 10 µM |  | > 10 µM | > 10 µM | N=C(N)c1ccc(OC(=O)CCNC(=O)OCc2ccccc2)c(C(=O)c2ccccc2)c1 [Compound 10, 4-amidino-2-benzoylphenyl 3-benzyloxycarbonylaminopropionate] | 95.9% | 80.3% | 17.0% | 2.3% |
| 1 µM | 5 µM | 10 µM | 0.8 µM | 0.3 µM | > 10 µM | COc1cc(C(=N)N)ccc1OC(=O)[C@H]1CC[C@H](CNC(=O)OCc2ccccc2)CC1 [Compound 16] | 91.2% | 61.8% | 17.4% | 3.4% |
| > 10 µM | > 10 µM | > 10 µM | > 10 µM | > 10 µM | > 10 µM | COc1cc(C(=N)N)ccc1OC(=O)[C@H]1CC[C@H](CN)CC1 [Compound 17] | 98.6% | 78.2% | 20.4% | 0% |
| 4 µM | 1 µM | 3 µM | 2 µM | 0.5 µM | > 10 µM | COC(=O)c1cc(C(=N)N)ccc1OC(=O)[C@H]1CC[C@H](CNC(=O)OCc2ccccc2)CC1 [Compound 18, 4-amidino-2-methoxycarbonylphenyl trans-4-benzyloxycarbonylaminomethylcyclohexanecarboxylate] | 98.8% | 73.2% | 11.4% | 2.2% |
| > 10 µM | > 10 µM | > 10 µM | > 10 µM | > 10 µM | > 10 µM | COC(=O)c1cc(C(=N)N)ccc1OC(=O)[C@H]1CC[C@H](CN)CC1 [Compound 19, 4-amidino-2-methyoxycarbonylphenyl trans-4-aminomethylcyclohexanecarboxylate] | 99.2% | 83.4% | 15.0% | 5.0% |
| 0.2 µM | 60 µM | 10 µM | 5 µM | 20 µM | 7 µM | COc1cc(C(=N)N)ccc1OC(=O)c1ccccc1 [Compound 23, 4-amidino-2-methoxyphenyl benzoate] |  |  |  |  |
